Measured values taken from patent publication US10294229B2, “Heteroaryl substituted aminopyridine compounds” (BRISTOL-MYERS SQUIBB COMPANY, priority 2015, dated 2019).
Counter-ions that a name gives are not always drawn.

Columns and labels:
[1] = test system: Human whole blood stimulated with a TLR2 agonist (lipoteichoic acid), IL-6 levels; assay: IRAK4 Whole Blood Assay; format: cell-based; conditions: Homo sapiens, lipoteichoic acid 10 μg/mL
Method in brief: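 IL-6 was quantified by cytometric bead assay in supernatants of human blood (ACD-A) stimulated for 5 h with lipoteichoic acid at 10 μg/mL final. Compound exposure preceded stimulation for 60 min at 37 °C, 5% CO2.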

[2] = Caco-2 Permeability Assay; format: in vitro ADME; conditions: human, Caco-2, test compound 3 μM
Method in brief: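 Bidirectional permeability measured over 2 h at 37° C, compound dosed at 3 μM in the donor compartment (apical for absorptive, basolateral for secretive) with plain buffer as receiver.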

IRAK4 = IRAK4 (Homo sapiens (Human), UniProt Q9NWZ3); assay: IRAK4 Inhibition Assay; format: biochemical; conditions: ATP 500 μM; IRAK4 0.6 nM
Method in brief: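 Mobility-shift kinase assay: 0.6 nM IRAK4, 500 μM ATP, 1.5 μM fluorescent peptide, 60 min, room temperature. Percent inhibition was normalised between enzyme-free and DMSO-only wells.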

IRAK4, sequence (Q9NWZ3 whole entry, species assumed): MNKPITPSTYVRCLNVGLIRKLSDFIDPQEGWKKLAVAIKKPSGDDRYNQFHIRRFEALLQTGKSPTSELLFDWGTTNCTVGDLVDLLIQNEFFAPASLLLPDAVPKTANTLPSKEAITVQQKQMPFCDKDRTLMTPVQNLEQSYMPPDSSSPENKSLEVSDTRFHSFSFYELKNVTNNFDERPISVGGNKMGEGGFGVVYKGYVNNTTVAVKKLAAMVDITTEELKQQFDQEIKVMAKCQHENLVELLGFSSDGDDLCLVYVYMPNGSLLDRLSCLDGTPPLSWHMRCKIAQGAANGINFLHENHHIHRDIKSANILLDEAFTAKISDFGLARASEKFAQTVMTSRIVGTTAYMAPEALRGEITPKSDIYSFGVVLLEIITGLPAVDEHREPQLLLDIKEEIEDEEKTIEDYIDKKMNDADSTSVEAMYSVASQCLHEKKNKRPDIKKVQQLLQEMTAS

Row | SMILES | EC50 [1] | Papp at 2 h, 3 µM [2] | IC50 (IRAK4)
1 | CC(=O)N1CC(n2cc(-c3cnc(-n4ccc5cc(C#N)cnc54)cc3NC(C)C)nn2)C1 [Example 162, 1-(5-(1-(1-acetylazetidin-3-yl)-1H-1,2,3-triazol-4-yl)-4-(isopropylamino)pyridin-2-yl)-1H-pyrrolo[2,3-b]pyridine-5-carbonitrile, TFA] | 440 nM | 17.1 ×10⁻⁶ cm/s | 4 nM
2 | CC(C)(O)CCc1cn(-c2cnc(-n3ncc4cc(C#N)cnc43)cc2N[C@H]2CC[C@@H](F)C2)nn1 [Example 372, 1-(4-(((1S,3R)-3-fluorocyclopentyl)amino)-5-(4-(3-hydroxy-3-methylbutyl)-1H-1,2,3-triazol-1-yl)pyridin-2-yl)-1H-pyrazolo[3,4-b]pyridine-5-carbonitrile] | 330 nM | 3.6 ×10⁻⁶ cm/s | 4 nM
3 | CC(C)Nc1cc(-n2ncc3cc(C#N)cnc32)ncc1-c1cn([C@H]2CCN(C(=O)C(C)(C)C)C[C@H]2O)nn1 [Example 179, 1-(5-(1-((3R,4S)-3-hydroxy-1-pivaloylpiperidin-4-yl)-1H-1,2,3-triazol-4-yl)-4-(isopropylamino)pyridin-2-yl)-1H-pyrazolo[3,4-b]pyridine-5-carbonitrile] | 680 nM | 1.8 ×10⁻⁶ cm/s | 7 nM
4 | CCCc1cn(-c2cnc(-n3ncc4cncnc43)cc2Nc2cnn(CC(F)F)c2)nn1 [Example 270, N-(1-(2,2-difluoroethyl)-1H-pyrazol-4-yl)-5-(4-propyl-1H-1,2,3-triazol-1-yl)-2-(1H-pyrazolo[3,4-d]pyrimidin-1-yl)pyridin-4-amine] | 1170 nM | 37.2 ×10⁻⁶ cm/s | 6 nM
5 | CC(C)Nc1cc(-n2ncc3cc(C#N)cnc32)ncc1-c1cc([C@@H]2C[C@H](O)CCN2)no1 [Example 424, 1-(5-(3-((2S,4R)-4-hydroxypiperidin-2-yl)isoxazol-5-yl)-4-(isopropylamino)pyridin-2-yl)-1H-pyrazolo[3,4-b]pyridine-5-carbonitrile] | 180 nM | < 1.5 ×10⁻⁶ cm/s | 10 nM
6 | CC(C)Nc1cc(-n2ncc3cc(C#N)cnc32)ncc1-c1cn([C@H]2CC[C@H](N)CC2)nn1 [Example 392, 1-(5-(1-((1r,4r)-4-aminocyclohexyl)-1H-1,2,3-triazol-4-yl)-4-(isopropylamino)pyridin-2-yl)-1H-pyrazolo[3,4-b]pyridine-5-carbonitrile] | 440 nM | < 1.5 ×10⁻⁶ cm/s | 3 nM
7 | CC(C)Nc1cc(-n2ncc3cc(C#N)cnc32)ncc1-n1cc(CC[C@](C)(O)CO)nn1 [Example 387, (S)-1-(5-(4-(3,4-dihydroxy-3-methylbutyl)-1H-1,2,3-triazol-1-yl)-4-(isopropylamino)pyridin-2-yl)-1H-pyrazolo[3,4-b]pyridine-5-carbonitrile] | 240 nM | < 1.5 ×10⁻⁶ cm/s | 8 nM
8 | CC(C)Nc1cc(-n2ncc3cc(C#N)cnc32)ncc1-c1cc(C2CCNCC2)no1 [Example 403, 1-(4-(isopropylamino)-5-(3-(piperidin-4-yl)isoxazol-5-yl)pyridin-2-yl)-1H-pyrazolo[3,4-b]pyridine-5-carbonitrile] | 230 nM | < 1.5 ×10⁻⁶ cm/s | 4 nM
9 | CC(C)Nc1cc(-n2ccc3cncnc32)ncc1-c1cn([C@@H]2CCNC[C@@H]2O)nn1 [Example 7, (3S,4R)-4-(4-(4-(isopropylamino)-6-(7H-pyrrolo[2,3-d]pyrimidin-7-yl)pyridin-3-yl)-1H-1,2,3-triazol-1-yl)piperidin-3-ol] | 4120 nM | 3.9 ×10⁻⁶ cm/s | 7 nM
10 | CC(=O)N1C2CCC1CC(c1cc(-c3cnc(-n4ncc5cc(C#N)cnc54)cc3NC(C)C)on1)C2 (stereo not drawn) [Example 419, 1-(5-(3-(8-acetyl-8-azabicyclo[3.2.1]octan-3-yl)isoxazol-5-yl)-4-(isopropylamino)pyridin-2-yl)-1H-pyrazolo[3,4-b]pyridine-5-carbonitrile] | 430 nM | 19.9 ×10⁻⁶ cm/s | 2 nM
11 | CC(C)(O)CCc1cn(-c2cnc(-n3ncc4cc(C#N)cnc43)cc2NCCCF)nn1 [Example 370, 1-(4-((3-fluoropropyl)amino)-5-(4-(3-hydroxy-3-methylbutyl)-1H-1,2,3-triazol-1-yl)pyridin-2-yl)-1H-pyrazolo[3,4-b]pyridine-5-carbonitrile] | 280 nM | 2.5 ×10⁻⁶ cm/s | 9 nM
12 | CC(C)CCn1cc(-c2cnc(-n3ncc4cc(C#N)cnc43)cc2NC(C)C)nn1 [Example 10, 1-(5-(1-isopentyl-1H-1,2,3-triazol-4-yl)-4-(isopropylamino)pyridin-2-yl)-1H-pyrazolo[3,4-b]pyridine-5-carbonitrile, TFA] | 400 nM | 5.5 ×10⁻⁶ cm/s | 3 nM
13 | CC(C)Nc1cc(-n2ncc3cc(C#N)cnc32)ncc1-c1cn(C2CCNCC2)nn1 [Example 195, 1-(4-(isopropylamino)-5-(1-(piperidin-4-yl)-1H-1,2,3-triazol-4-yl)pyridin-2-yl)-1H-pyrazolo [3,4-b]pyridine-5-carbonitrile] | 450 nM | < 1.5 ×10⁻⁶ cm/s | 2 nM
14 | CCN1CCOC[C@H]1c1cc(-c2cnc(-n3ncc4cc(C#N)cnc43)cc2NC(C)C)no1 [Example 431, (S)-1-(5-(5-(4-ethylmorpholin-3-yl)isoxazol-3-yl)-4-(isopropylamino)pyridin-2-yl)-1H-pyrazolo[3,4-b]pyridine-5-carbonitrile] | 440 nM | 21.8 ×10⁻⁶ cm/s | 2 nM
15 | CC(C)Nc1cc(-n2ncc3cnc(N)nc32)ncc1-n1cc(CCC(C)(C)F)nn1 [Example 351, 1-(5-(4-(3-fluoro-3-methylbutyl)-1H-1,2,3-triazol-1-yl)-4-(isopropylamino)pyridin-2-yl)-1H-pyrazolo[3,4-d]pyrimidin-6-amine] | 370 nM | 30.6 ×10⁻⁶ cm/s | 4 nM
16 | CC(=O)N(C)CCCc1cc(-c2cnc(-n3ncc4cc(C#N)cnc43)cc2NC(C)C)on1 [Example 415, N-(3-(5-(6-(5-cyano-1H-pyrazolo[3,4-b]pyridin-1-yl)-4-(isopropylamino)pyridin-3-yl)isoxazol-3-yl)propyl)-N-methylacetamide] | 260 nM | 18.3 ×10⁻⁶ cm/s | 3 nM
17 | CC(=O)Cc1cn(-c2cnc(-n3ncc4cc(C#N)cnc43)cc2NC(C)C)nn1 [Example 331, 1-(4-(isopropylamino)-5-(4-(2-oxopropyl)-1H-1,2,3-triazol-1-yl)pyridin-2-yl)-1H-pyrazolo[3,4-b]pyridine-5-carbonitrile] | 2560 nM | 9.2 ×10⁻⁶ cm/s | 10 nM
18 | CC(=O)N1CCC(n2cc(-c3cnc(-n4ncc5cc(C#N)cnc54)cc3NC(C)C)nn2)CC1 [Example 159, 1-(5-(1-(1-acetylpiperidin-4-yl)-1H-1,2,3-triazol-4-yl)-4-(isopropylamino)pyridin-2-yl)-1H-pyrazolo[3,4-b]pyridine-5-carbonitrile] | 130 nM | < 1.5 ×10⁻⁶ cm/s | 4 nM
19 | CCCn1cc(-c2cnc(-n3ncc4cc(Cl)cnc43)cc2NC(C)C)nn1 [Example 218, 2-(5-chloro-1H-pyrazolo[3,4-b]pyridin-1-yl)-N-isopropyl-5-(1-propyl-1H-1,2,3-triazol-4-yl)pyridin-4-amine] | 2090 nM | 12.5 ×10⁻⁶ cm/s | 9 nM
